Experimental data reported in patent WO2020158863A1, “Combined drug of anthracycline compound-containing micelle preparation with immunostimulant” (priority 2019, dated 2020).
Counter-ions that a name gives are not always drawn.

What was measured:
GL261 cells [1] = assay: ICD marker expression on cell surface, flow cytometry, GL261 cells; format: cell-based, mouse; conditions: 24 h; negative control; Fig. 8G
[2] = test system: mouse pancreatic cancer cells KPC; assay: IC50 for mouse pancreatic cancer cells KPC (Experimental Example 13-1); format: cell-based; conditions: Pancreatic cancer cell
KPC cells = assay: ICD marker expression, flow cytometry, KPC cells (Experimental Example 13-2); format: cell-based, mouse; conditions: 24 h, Fig. 21; for HSP70 level / HSP90 level / calreticulin level: 1 μg/mL or 5 μg/mL
[3] = test system: mouse glioblastoma (GBM) cells GL261; assay: in vitro cytotoxicity assay (Experimental Example 3); format: cell-based; conditions: 3 h exposure, 48 h incubation; Fig. 3
GL261 cells [4] = assay: Cytotoxic activity (IC50), GL261 cells (Experimental Example 6)
CT2A cells = assay: Cytotoxic activity (IC50), CT2A cells (Experimental Example 6); format: cell-based, mouse; conditions: PTEN-negative; 48 h; Fig. 8F
GL261-luc tumor [5] = assay: Orthotopic GL261-luc tumor in wild type mice (Experimental Example 7-1); format: in vivo, mouse; conditions: wild type C57/BL6; 5 mg/kg Epi equivalent
GL261-luc tumor [6] = assay: Orthotopic GL261-luc tumor in nude mice (Experimental Example 7-1); format: in vivo, mouse; conditions: nude BALB/c; 5 mg/kg Epi equivalent
PD-L1 = PD-L1 expression in CT2A tumors, flow cytometry (Experimental Example 10); format: in vivo, mouse; conditions: 8 days after single tail vein injection, 6 mg/kg Epi equivalent; Fig. 16
[7] = test system: various cancer cells (MCA205, AB12, GL261, CT2A, LL2, C26); assay: IC50 against various cancer cells (Experimental Example 11-1); format: cell-based
[8] = test system: fibrosarcoma cell carcinoma line (MCA205, Sarcoma180, NIH3T3, HT1080); assay: IC50 against fibrosarcoma cell lines (Experimental Example 12-1); format: cell-based

With `[NH2][Pt]([NH2])([Cl])[Cl]` [CDDP, Cisplatin] the ICD marker level (GL261 cells [1]) was “did not significantly increase the marker”.

With `COc1cccc2c1C(=O)c1c(O)c3c(c(O)c1C2=O)C[C@@](O)(C(=O)CO)C[C@@H]3O[C@H]1C[C@H](N)[C@H](O)[C@H](C)O1` [DOX, doxorubicin hydrochloride] the IC50 [2] was no more than 2 µg/mL, the HSP70 level (KPC cells) was “significantly increased” and the HSP90 level (KPC cells) was “significantly increased”. For the same molecule, the calreticulin level (KPC cells) was “significantly increased”.

For `COc1cccc2c1C(=O)c1c(O)c3c(c(O)c1C2=O)C[C@@](O)(C(=O)CO)C[C@@H]3O[C@H]1C[C@H](N)[C@@H](O)[C@H](C)O1` [Epi, Epirubicin hydrochloride], the in vitro cytotoxicity [3] was “high in vitro cytotoxicity”, the IC50 (GL261 cells [4]; Mus musculus, GL261, 48 h) was less than 1 µg/mL and the cytotoxic activity (GL261 cells [4]; PTEN-positive, 48 h, Fig. 8E) was “high cytotoxic activity”. The cytotoxic activity (CT2A cells) was “high activity against PTEN-negative CT2A cells, comparable to the activity against GL261 cells”, the “tumor growth rate / tumor-derived luminescence” value (GL261-luc tumor [5]) was “the tumor growth rate was not suppressed” and the tumor growth rate (GL261-luc tumor [6]) was “the tumor growth rate was not suppressed”. The “expression level of PD-L1 in tumor cells” value (PD-L1) was “no such reduction in expression levels occurred”, the IC50 [7] was no more than 1 µg/mL and the IC50 [8] was no more than 2 µg/mL. For the same molecule, the HSP70 level (KPC cells) was “significantly increased”, the HSP90 level (KPC cells) was “significantly increased” and the calreticulin level (KPC cells) was “significantly increased”.

`CCc1c2c(nc3ccc(OC(=O)N4CCC(N5CCCCC5)CC4)cc13)-c1cc3c(c(=O)n1C2)COC(=O)[C@]3(O)CC` [irinotecan] was tested, and the ICD marker level (KPC cells; any concentration) was “did not significantly increase the marker at any concentration”.
